Assay results from patent US20260138958A1, “SUBSTITUTED N-PHENYLURACILS AND SALTS THEREOF, AND USE THEREOF AS HERBICIDAL ACTIVE SUBSTANCES” (Bayer Aktiengesellschaft, priority 2022, published 2026).

Assays:
Format in all cases: in vivo
Veronica persica (VERPE) = assay: Post-emergence herbicidal action, greenhouse pot test
Method: (§1) Seeds of monocotyledonous and dicotyledonous weeds and crop plants were placed in sandy loam in plastic or wood-fibre pots, covered with soil and cultivated in a greenhouse under controlled growth conditions. 2 to 3 weeks after sowing, the test plants were treated at the one-leaf stage. The compounds of the invention, formulated in the form of wettable powders (WP) or as emulsion concentrates (EC), were then sprayed onto the green parts of the plants as aqueous suspension or emulsion with addition of 0.5% additive at a water application rate of 600 l/ha (converted). After the test plants had been kept in the greenhouse under optimum growth conditions for about 3 weeks, the activity of the preparations was rated visually in comparison to untreated controls. For example, 100% activity=the plants have died, 0% activity=like control plants.

[1] = test system: Abutilon theophrasti (ABUTH); assay: as above
Method: as §1

[2] = test system: Alopecurus myosuroides (ALOMY); assay: as above; settings: 20 g/ha
Method: as §1

[3] = test system: Amaranthus retroflexus (AMARE); assay: as above
Method: as §1

Bassia scoparia (KCHSC) = assay: as above
Method: as §1

[4] = test system: Digitaria sanguinalis (DIGSA); assay: as above
Method: as §1

[5] = test system: Echinochloa crus-galli (ECHCG); assay: as above
Method: as §1

[6] = test system: Pharbitis purpurea (PHBPU); assay: as above
Method: as §1

[7] = test system: Polygonum convolvulus (POLCO); assay: as above; settings: 20 g/ha
Method: as §1

Setaria viridis (SETVI) = assay: as above
Method: as §1

Viola tricolor (VIOTR) = assay: as above
Method: as §1

[8] = test system: Triticum aestivum (TRZAS); assay: Post-emergence crop plant compatibility, greenhouse pot test; settings: crop plant, post-emergence, 1.25 g/ha
Method: as §1
The observed effects on selected crop plants are reported here in comparison to the untreated controls (values in %).

[9] = test system: Tripleurospermum inodorum (MATIN); assay: Post-emergence herbicidal action, greenhouse pot test; settings: 20 g/ha
Method: as §1

| Compound | Post-emergence effect at 20 g/ha against ABUTH in % [1] | Post-emergence effect at 1.25 g/ha against AMARE in % [3] | Post-emergence effect at 5 g/ha against AMARE in % [3] | Post-emergence effect at 20 g/ha against AMARE in % [3] | Post-emergence effect at 5 g/ha against KCHSC in % (Bassia scoparia (KCHSC)) | Post-emergence effect at 20 g/ha against KCHSC in % (Bassia scoparia (KCHSC)) | Post-emergence effect at 20 g/ha against DIGSA in % [4] | Post-emergence effect at 5 g/ha against ECHCG in % [5] | Post-emergence effect at 20 g/ha against ECHCG in % [5] | Post-emergence effect at 5 g/ha against PHBPU in % [6] | Post-emergence effect at 20 g/ha against PHBPU in % [6] | Post-emergence effect at 20 g/ha against POLCO in % [7] | Post-emergence effect at 5 g/ha against SETVI in % (Setaria viridis (SETVI)) | Post-emergence effect at 20 g/ha against SETVI in % (Setaria viridis (SETVI)) | Post-emergence effect at 5 g/ha against VERPE in % (Veronica persica (VERPE)) | Post-emergence effect at 20 g/ha against VERPE in % (Veronica persica (VERPE)) | Post-emergence effect at 5 g/ha against VIOTR in % (Viola tricolor (VIOTR)) | Post-emergence effect at 20 g/ha against VIOTR in % (Viola tricolor (VIOTR)) | Post-emergence effect at 1.25 g/ha against TRZAS in % [8] | other results |
| --- | --- | --- | --- | --- | --- | --- | --- | --- | --- | --- | --- | --- | --- | --- | --- | --- | --- | --- | --- | --- |
| Cn1c(C(F)(F)F)cc(=O)n(-c2cc(Oc3ccccc3OCC(=O)OC3CCCCC3)c(Cl)cc2F)c1=O [a-29, reference compound] |  |  |  |  |  |  |  |  |  |  |  |  |  |  |  |  |  |  |  | VERPE (efficacy in %) (Veronica persica (VERPE); Table B4 comparison, application rate 1.25 g/ha): 90% |
| CC(OC(=O)COc1ccccc1Oc1cc(-n2c(=O)cc(C(F)(F)F)n(C)c2=O)c(F)cc1Cl)C1CCCCC1 (stereo not shown) [I.7-15] | 100% | 100% | 100% | 100% | 100% | 100% | 100% | 90% | 100% | 100% | 100% | 100% | 100% | 100% | 100% | 100% | 100% | 100% | 20% | Post-emergence effect at 20 g/ha against ALOMY in % [2]: 80%; Post-emergence effect at 1.25 g/ha against VERPE in % (Veronica persica (VERPE); 1.25 g/ha): 80% |
| Cn1c(C(F)(F)F)cc(=O)n(-c2cc(Oc3cc(F)ccc3OCC(=O)OCC3CC3)c(Br)cc2F)c1=O [I.24-1] | 100% | 100% | 100% | 100% | 100% | 100% | 100% | 80% | 100% | 100% | 100% | 100% | 100% | 100% | 100% | 100% | 100% | 100% | 20% | Post-emergence effect at 1.25 g/ha against ABUTH in % ([1]; 1.25 g/ha): 100%; Post-emergence effect at 5 g/ha against ABUTH in % ([1]; 5 g/ha): 100%; Post-emergence effect at 1.25 g/ha against KCHSC in % (Bassia scoparia (KCHSC); 1.25 g/ha): 100%; Post-emergence effect at 1.25 g/ha against DIGSA in % ([4]; 1.25 g/ha): 80%; Post-emergence effect at 5 g/ha against DIGSA in % ([4]; 5 g/ha): 100%; Post-emergence effect at 1.25 g/ha against PHBPU in % ([6]; 1.25 g/ha): 80%; Post-emergence effect at 1.25 g/ha against SETVI in % (Setaria viridis (SETVI); 1.25 g/ha): 90%; Post-emergence effect at 20 g/ha against MATIN in % [9]: 80% |
